Data: publication PMC10545747, “Development of cyclopeptide inhibitors of cGAS targeting protein-DNA interaction and phase separation” (Nature Communications, 2023)
“And” between values parts separate entries of the source, which are not always exact repeats. Equal values may be shown once. Square brackets hold non-standard residues; d marks the D form. Peptide text beside a SMILES is read from it. Orn = NCCC[C@H](N)C(=O)O

Assays:
[1] = biological target: T1, recombinant human cGAS enzyme (hcGAS-ΔN, residues 147–522) (Homo sapiens, UniProt Q8N884); assay: RNA-based fluorescent biosensor assay of cGAS activity (2',3'-cGAMP formation), in vitro screening; type: biochemical; conditions: for Remaining activity (%), Fig. 1a source data / remaining activity at 20 µM: 20 μM, replicate values; for remaining activity at 20 µM: read-out: Remaining activity (%), Fig. 1a source data; for Inhibition % / inhibition at 20 µM: peptides screened at 20 μM, Supplementary Table 1 / Fig. S5b; for inhibition at 20 µM: read-out: Inhibition %
T1 construct: N-terminally truncated human cGAS (hcGAS-ΔN, residues 147–522); 6xHis-SUMO (N, cleaved yes); made in house; host or cells: Escherichia coli BL21 (DE3)
Summary of the method: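 In 40 mM Tris-HCl pH 7.5, 100 mM NaCl, 10 mM MgCl2, ISD (0.5 μM) started the reaction with hcGAS-ΔN (1.5 μM), ATP (1 mM) and GTP (1 mM). Incubation was 2 h at 37 °C, with compounds screened at 20 μM. 2',3'-cGAMP formed was quantified with an RNA-based fluorescent biosensor.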

[2] = system: dsDNA-stimulated THP1 cells; assay: qPCR of IFNB1/CXCL10/IL6 mRNA in THP1 cells stimulated by dsDNA (ISD, HSV60mer); type: cell-based, human; conditions: THP1, dsDNA 6 h; hits 10 μM; replicate values
Text: (§1) To screen direct cGAS inhibitors targeting protein-DNA interface from our developed focused library of macrocyclic peptides, we applied an RNA-based fluorescent biosensor for 2’,3’-cGAMP to detect cGAS activity in vitro (Supplementary Fig. 1a)[49]. The formation of 2’,3’-cGAMP from ATP and GTP was catalyzed by recombinant human cGAS enzyme (hcGAS-ΔN, residues 147–522, Supplementary Fig. 1b) in the presence of ISD (interferon stimulatory DNA, a 45-bp dsDNA), which was readily quantified by the RNA-based fluorescent biosensor and was further confirmed by ion exchange chromatography (Supplementary Fig. 1c). […] Subsequently, a total of 90 macrocyclic peptides were screened at a concentration of 20 μM (Fig. 1a and Supplementary Fig. 1e), and 4 hits (XQ2, XQ8, XQ19, and XQ46) were obtained for further testing at a cut-off of 40% inhibition (Supplementary Table 1). To evaluate the inhibitory effect of the hits against cGAS in cells, we employed real-time quantitative PCR (qPCR) to examine mRNA levels of IFNΒ1 in THP1 cells. The reported cGAS inhibitor RU.521 was used as the positive control, and the non-active peptide XQ28 in the screening assay was used as the negative control. […] The inhibition of cGAS by these hits was further confirmed in the reporter cell line THP1-Lucia ISG (Invivogen) that expresses secreted luciferase induced by an IRF3-inducible ISG54 promoter (Fig. 1c). The discrepancy between the inhibitory effect of the hits in protein and cellular assays may be attributed to their different cellular permeability.
The indicated cells were stimulated with either ISD (Sangon Biotech), HSV-1 (Provided by Dr. Zhengfan Jiang), HSV60mer (Sangon Biotech), SATE-cddA[70], 2’3’-cGAMP (Invivogen, Cat# tlrl-nacga23-1), ADU-S100 (MedChemExpress, Cat# HY-12885A) or Poly(I:C) (Invivogen, Cat# tlrl-pic) after XQ2 or XQ2B treatment. Total RNA was isolated from indicated cells that incubated with the drugs for indicated time or mice tissues by using NucleoZOL reagent (MACHEREY-NAGEL) according to the manufacturer’s instructions. The quantifications of mRNA levels were carried out by real-time PCR using a PerfectStart® Uni RT&qPCR Kit (TransGen Biotech) on the QuantStudio 5 qPCR machine (Applied Biosystems). Samples were carried out in triplicate and the target CT values were normalized to GAPDH CT values. Primers of qPCR used in this study can be found in Supplementary Table S2.

THP1-Lucia ISG cells = assay: Luciferase reporter assay, dsDNA stimulation; type: cell-based, human; design: Type I interferon response, luciferase activity, Fig. 1c / luciferase activity, Fig. 2a: scale not given here; conditions: dsDNA 24 h; replicate values
Text: as §1
THP1-Lucia ISG cells (Invivogen) were seeded into a 96-well plate and incubated with RU.521 (Invivogen) or XQ2 for the indicated time, and then transfected with dsDNA by lipofectamine 2000 (Invitrogen) or infected by HSV-1 with the indicated titer for 24 h. The supernatant was collected and 50 μL QUANTI-Luc Luciferase reagent (Invivogen) was added to 20 μL supernatants per well, and luciferase luminescence was detected by a microplate reader (BioTek Synergy H1) immediately.

T1 sequence (Q8N884 147-522, stated change not applied): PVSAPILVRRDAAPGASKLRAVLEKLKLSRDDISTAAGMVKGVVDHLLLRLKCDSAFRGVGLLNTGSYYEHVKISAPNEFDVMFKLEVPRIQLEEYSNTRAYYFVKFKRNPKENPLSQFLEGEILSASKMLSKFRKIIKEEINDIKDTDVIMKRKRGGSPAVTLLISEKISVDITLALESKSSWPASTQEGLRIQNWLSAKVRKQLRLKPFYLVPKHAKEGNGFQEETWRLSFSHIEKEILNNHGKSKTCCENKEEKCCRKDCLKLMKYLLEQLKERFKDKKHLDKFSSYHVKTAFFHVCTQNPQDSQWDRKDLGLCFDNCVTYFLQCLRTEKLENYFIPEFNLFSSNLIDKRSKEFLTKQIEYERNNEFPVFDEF

Row | Compound | Remaining activity (%), Fig. 1a source data [1] | remaining activity at 20 µM [1] [%] | Inhibition % ([1]; 20 µM) [%] | inhibition at 20 µM [1] [%] | Inhibition % [1] [%] | IFNB1 mRNA, qPCR, Fig. 1b [2] | Type I interferon response, luciferase activity, Fig. 1c (THP1-Lucia ISG cells) | cGAS activity in the biosensor assay [1]
1 | CC(C)C[C@@H]1NC(=O)[C@H](CCCNC(=N)N)NC(=O)[C@H](C(C)C)NC(=O)[C@@H]2CCCN2C(=O)[C@@H](Cc2ccccc2)NC(=O)[C@H](C)NC(=O)[C@H](CCCNC(=N)N)NC(=O)[C@H](C(C)C)NC(=O)[C@H](C)NC(=O)[C@@H](Cc2ccccc2)NC1=O [XQ19, Cyclo (AfPVRLfAVR)] (cyclo(AVRA[dF]PVRL[dF])) | 39.7338% and 39.7351% | 40.1 | ≥ 40 | 60 | – | 69.3649 and 64.1779 and 70.7063 | 0.9185 and 0.6328 and 0.8726 | –
2 | CC(C)C[C@@H]1NC(=O)[C@H](CCCNC(=N)N)NC(=O)[C@H](C(C)C)NC(=O)[C@H](C)NC(=O)[C@@H](Cc2ccccc2)NC(=O)[C@H](CC(C)C)NC(=O)[C@H](CCCNC(=N)N)NC(=O)[C@H](C(C)C)NC(=O)[C@H](C)NC(=O)[C@@H](Cc2ccccc2)NC1=O [XQ8, Cyclo (LfAVRLfAVR)] (cyclo(AVRL[dF]AVRL[dF])) | 48.5808% and 47.6977% | 48.8 | ≥ 40 | 52 | – | 50.5074 and 61.5926 and 57.7936 | 1.122 and 0.7764 and 0.491 | –
3 | N=C(N)NCCC[C@@H]1NC(=O)[C@@H]2CCCN2C(=O)[C@H](Cc2ccccc2)NC(=O)[C@H](CCCNC(=N)N)NC(=O)[C@@H]2CCCN2C(=O)[C@H](Cc2ccccc2)NC1=O [XQ28, Cyclo (RFPRFP)] (cyclo(FPRFPR)) | 109.037% and 108.058% | 107 | – | 0 | – | 80.7818 and 80.352 and 88.8517 | 1.441 and 0.666 and 1.434 | non-active
4 | CC(C)C[C@@H]1NC(=O)[C@H](CCCNC(=N)N)NC(=O)[C@H](C(C)C)NC(=O)[C@@H]2CCCN2C(=O)[C@@H](Cc2ccccc2)NC(=O)[C@H](CC(C)C)NC(=O)[C@H](CCCNC(=N)N)NC(=O)[C@H](C(C)C)NC(=O)[C@@H]2CCCN2C(=O)[C@@H](Cc2ccccc2)NC1=O [XQ38, Cyclo (LfPVRLfPVR)] (cyclo(L[dF]PVRL[dF]PVR)) | 112.545% and 112.328% | 113 | – | 0 | – | – | – | –
5 | CC(C)C[C@@H]1NC(=O)[C@H](CCCNC(=N)N)NC(=O)[C@H](C(C)C)NC(=O)[C@@H]2CCCN2C(=O)[C@@H](Cc2ccccc2)NC(=O)[C@H](C)NC(=O)[C@H](CCCNC(=N)N)NC(=O)[C@H](C(C)C)NC(=O)[C@@H]2CCCN2C(=O)[C@@H](C)NC1=O [XQ21, Cyclo (AfPVRLaPVR)] (cyclo(A[dF]PVRL[dA]PVR)) | 107.409% and 108.531% | 108 | – | 0 | – | – | – | –

The next lines start with results.

Row | Remaining activity (%), Fig. 1a source data [1] | remaining activity at 20 µM [1] [%] | Inhibition % ([1]; 20 µM) [%] | inhibition at 20 µM [1] [%] | Inhibition % [1] [%] | Compound | IFNB1 mRNA, qPCR, Fig. 1b [2] | Type I interferon response, luciferase activity, Fig. 1c (THP1-Lucia ISG cells) | cGAS activity in the biosensor assay [1]
6 | 96.3833% and 97.8523% | 97.2 | – | 3 | – | CC(C)C[C@@H]1NC(=O)[C@H](CCCN)NC(=O)[C@H](C(C)C)NC(=O)[C@@H]2CCCN2C(=O)[C@@H](Cc2ccccc2)NC(=O)[C@H](CC(C)C)NC(=O)[C@H](CCCN)NC(=O)[C@H](C(C)C)NC(=O)[C@@H]2CCCN2C(=O)[C@@H](Cc2ccccc2)NC1=O [XQ39, Cyclo (LfPV(Orn)LfPV(Orn))] (cyclo(V[Orn]L[dF]PV[Orn]L[dF]P)) | – | – | –
7 | – | – | – | – | 16 | Cyclo (LwP(T(NMe))DLf(K(Dde))VR) [XQ61] | – | – | –
8 | – | – | – | – | 0 | Cyclo (LfRADAfPTR) [XQ80] | – | – | –
9 | 43.44% and 43.4055% | 43.8 | ≥ 40 | 56 | – | CC(C)C[C@@H]1NC(=O)[C@H](CC(C)C)NC(=O)[C@H](C(C)C)NC(=O)[C@@H]2CCCN2C(=O)[C@@H](Cc2ccccc2)NC(=O)[C@H](C)NC(=O)[C@H](CCCNC(=N)N)NC(=O)[C@H](C(C)C)NC(=O)[C@@H]2CCCN2C(=O)[C@@H](Cc2ccccc2)NC1=O [XQ46, Cyclo (AfPVLLfPVR)] (cyclo(A[dF]PVLL[dF]PVR)) | 39.5997 and 41.1038 and 45.9315 | 0.8903 and 0.5111 and 0.5713 | comparable inhibitory activity as that of XQ2, XQ8 and XQ19
10 | – | – | – | 0 | – | CC(C)C[C@@H]1NC(=O)[C@H](CCCNC(=N)N)NC(=O)[C@H](CC(=O)O)NC(=O)[C@H](C(C)C)NC(=O)[C@@H]2CCCN2C(=O)[C@@H](Cc2ccccc2)NC(=O)[C@H](CC(C)C)NC(=O)[C@H]([C@@H](C)O)NC(=O)[C@@H]2CCCN2C(=O)[C@@H](Cc2ccccc2)NC1=O [XQ65, Cyclo (LfPTLfPVDR)] (cyclo(DRL[dF]PTL[dF]PV)) | – | – | –
